Where “and” joins values, the source holds several entries; their conditions need not be identical. Identical values can stand only once. Like-named read-outs stand apart in the source and are kept apart here.
Key:
[1] = Study A17: PK of fospropofol and propofol after single oral dose of fospropofol disodium 800 mg in subjects with migraine; conditions: for AUC / Cmax / Tmax: female, human, po, 800 mg; for Cmax: Fospropofol Cmax; for Tmax: Fospropofol Tmax
Experimental: The study is planned to complete approximately 85 subjects. • Enrolled subjects will be asked to come to the study site for treatment when they experience a qualifying migraine headache. Dosing must occur within 4 hours after onset of the migraine symptoms. If treatment at the study site is not feasible or practicable within 4 hours after onset of migraine symptoms, subjects should use their usual medication for that headache and attempt to visit the clinic for treatment as soon as possible (within 4 hours) after onset of their next migraine headache. Dosing must occur within 60 days after enrollment (see Post-enrollment Period below). • At clinic check-in for treatment, study personnel will verify eligibility for closing regarding the criteria for a qualifying headache and adherence to post-enrollment study restrictions (see Eligibility for Dosing below). • Treatment will consist of a single oral dose of fospropofol disodium. […] Because the prevalence of migraine headaches is higher in women than in men, efforts will be made to enroll at least 50% women. • Subjects must meet the general inclusion and exclusion criteria listed below (Inclusion Criteria and Exclusion Criteria) at screening to be enrolled in the study. To be eligible for fospropofol disodium treatment after onset of a migraine headache, enrolled subjects must meet criteria specific to the presenting headache at clinic check-in (see Qualifying Headache below) and adhere to study restrictions specific to the period between enrollment and clinic check-in (see Post-enrollment Restrictions below). • Inclusion Criteria Subjects must meet all of the following criteria at screening to be enrolled in the study: • 1. Written informed consent approved by the Institutional Review Board (IRB) given before any study-related procedures are performed • 2. […] Complete abstinence alone can be used as a method of contraception. • 6. […] Able to comprehend the nature of the study, capable of giving written informed consent, and able to communicate effectively with clinic staff (as assessed by the investigator) • 8. Available to volunteer for the entire study duration and willing to adhere to all protocol requirements, including the post-enrollment restrictions (see Post-enrollment Restrictions below) • 9. Agrees not to post any information related to the study on any website or social media site (e.g., Facebook, Twitter, LinkedIn, Google+, etc.) until the entire trial has been completed • 10. Willing to forgo rescue medicine for at least 2 hours after initiation of treatment with study drug (see In-Clinic Rescue Medicine) • Exclusion Criteria Subjects to whom any of the following criteria apply at screening will be excluded: • 1. History of hemiplegic migraine (at any time in the past). • 2. History of headaches of any type occurring on ≥15 days/month during any of the 3 months prior to screening. • 3.

[2] = Study No. 15-3 toxicokinetics of fospropofol and propofol in plasma; assay type: in vivo, Sprague-Dawley rats; conditions: for AUC(0-t) / Cmax / Tmax: Sprague-Dawley, rat, plasma, po, oral gavage fospropofol disodium; for AUC(0-t): read-out: Fospropofol AUC0-6 hr; for Cmax: read-out: Fospropofol Cmax; for Tmax: read-out: Fospropofol Tmax
Experimental: The purpose of Study No. 15-3 (GLP) was to determine the potential toxicity of fospropofol in Sprague-Dawley rats when administered once daily by oral gavage for 14 days. […] The cause of death for the three 250 mg/kg/day group main study females found dead could not be determined, but was considered related to the pharmacodynamic effects of fospropofol, based on the time of death relative to the time of close administration, and the clinical signs recorded before death. Clinical observations during the closing period for these animals included labored breathing, prostrate, splayed hindlimbs, uncoordinated movement, decreased activity, and eyes closed.

[3] = A17 vs. A16 800 mg Cohort, excluding subject 308
[4] = Study A17 vs. A16 800 mg Cohort, excluding subject 308
[5] = plasma, Mean, Mean without Subject 6008 (below limit of quantitation at all time points), Fospropofol Disodium 800 mg oral
[6] = plasma, Mean, N = 12 migraine subjects, Fospropofol Disodium 800 mg oral
[7] = individual migraine subjects, Fospropofol Disodium 800 mg oral
[8] = plasma, individual migraine subjects (N = 12), Fospropofol Disodium 800 mg oral
[9] = female, 50 mg/kg, Female, 50 mg/kg, Day 1
[10] = female, 50 mg/kg, Female, 50 mg/kg, Day 14
[11] = female, 100 mg/kg, Female, 100 mg/kg, Day 1
[12] = female, 100 mg/kg, Female, 100 mg/kg, Day 14
[13] = female, 250 mg/kg, Female, 250 mg/kg, Day 1
[14] = female, 250 mg/kg, Female, 250 mg/kg, Day 14
[15] = male, 50 mg/kg, Male, 50 mg/kg, Day 1
[16] = male, 50 mg/kg, Male, 50 mg/kg, Day 14
[17] = male, 100 mg/kg, Male, 100 mg/kg, Day 1
[18] = male, 100 mg/kg, Male, 100 mg/kg, Day 14
[19] = male, 250 mg/kg, Male, 250 mg/kg, Day 1
[20] = male, 250 mg/kg, Male, 250 mg/kg, Day 14

CC(C)c1cccc(C(C)C)c1OCOP(=O)(O)O [fospropofol, (2,6-diisopropylphenoxy)methyl dihydrogen phosphate]
Ratio of mean fospropofol Auc1, migraine subjects (all female) to female healthy volunteers [1, 3]: 110%
Ratio of mean fospropofol Auc2, migraine subjects (all female) to female healthy volunteers [1, 3]: 116%
Ratio of mean fospropofol Auc4, migraine subjects (all female) to female healthy volunteers [1, 3]: 120%
Ratio of mean fospropofol Cmax, migraine subjects (all female) to female healthy volunteers [1, 3]: 94%
Ratio of mean fospropofol Tmax, migraine subjects (all female) to female healthy volunteers [1, 3]: 89%
Ratio of mean fospropofol Auc1, migraine subjects to healthy volunteers [1, 4]: 121%
Ratio of mean fospropofol Auc2, migraine subjects to healthy volunteers [1, 4]: 130%
Ratio of mean fospropofol Auc4, migraine subjects to healthy volunteers [1, 4]: 135%
Ratio of mean fospropofol Cmax, migraine subjects to healthy volunteers [1, 4]: 105%
Ratio of mean fospropofol Tmax, migraine subjects to healthy volunteers [1, 4]: 98%
AUC ([1]; plasma, Fospropofol AUC1, Mean, Mean without Subject 6008 (below limit of quantitation at all time points), Fospropofol Disodium 800 mg oral): 3360 ng·h/mL
AUC ([1]; plasma, Fospropofol AUC1, Mean, Mean, N = 12 migraine subjects, Fospropofol Disodium 800 mg oral): 3080 ng·h/mL
AUC ([1]; plasma, Fospropofol AUC2, Mean, Mean without Subject 6008 (below limit of quantitation at all time points), Fospropofol Disodium 800 mg oral): 4310 ng·h/mL
AUC ([1]; plasma, Fospropofol AUC2, Mean, Mean, N = 12 migraine subjects, Fospropofol Disodium 800 mg oral): 3950 ng·h/mL
AUC ([1]; plasma, Fospropofol AUC4, Mean, Mean without Subject 6008 (below limit of quantitation at all time points), Fospropofol Disodium 800 mg oral): 4650 ng·h/mL
AUC ([1]; plasma, Fospropofol AUC4, Mean, Mean, N = 12 migraine subjects, Fospropofol Disodium 800 mg oral): 4260 ng·h/mL
Cmax [1, 5]: 6320 ng/mL
Cmax [1, 6]: 5790 ng/mL
Tmax [1, 5]: 19.8 min
Tmax [1, 6]: 19.8 min
Fospropofol AUC4 [1, 7]: 3837.04 ng·h/mL and 1469.88 ng·h/mL and 4303.32 ng·h/mL and 4814.33 ng·h/mL and 6942.73 ng·h/mL and 1702.48 ng·h/mL and 8572.36 ng·h/mL and 1248.45 ng·h/mL and 3152.5 ng·h/mL and 7130.22 ng·h/mL and 7986.57 ng·h/mL
Fospropofol Cmax [1, 7]: 5163.62 ng/mL and 3285.03 ng/mL and 5036.79 ng/mL and 7527.26 ng/mL and 10597.13 ng/mL and 2219.93 ng/mL and 8307.86 ng/mL and 1419.1 ng/mL and 4507.39 ng/mL and 11463.93 ng/mL and 10001.18 ng/mL
Fospropofol Tmax [1, 7]: 10 min and 40 min
Fospropofol AUC 1 hr [1, 8]: 723.61 ng·h/mL and 2418.57 ng·h/mL and 5268.76 ng·h/mL and 6456.6 ng·h/mL and 2684.78 ng·h/mL and 1315.43 ng·h/mL and 3262.09 ng·h/mL and 3522.27 ng·h/mL and 5673.87 ng·h/mL and 1193.95 ng·h/mL and 4461.52 ng·h/mL
Fospropofol AUC 2 hr [1, 8]: 1007.69 ng·h/mL and 3045.22 ng·h/mL and 6730.95 ng·h/mL and 7756.33 ng·h/mL and 3666.13 ng·h/mL and 1421.1 ng·h/mL and 4174.88 ng·h/mL and 4386.97 ng·h/mL and 6702.97 ng·h/mL and 1610.51 ng·h/mL and 6945.81 ng·h/mL
Increase of fospropofol Cmax and AUC0-6hr with dose ([2]; 50, 100, and 250 mg/kg/day, Day 1 and Day 14): greater than close-proportional
AUC(0-t) [2, 9]: 166 ng·h/mL
Cmax [2, 9]: 582 ng/mL
Tmax [2, 9]: 4.98 min
AUC(0-t) [2, 10]: 160 ng·h/mL
Cmax [2, 10]: 341 ng/mL
Tmax [2, 10]: 15 min
AUC(0-t) [2, 11]: 827 ng·h/mL
Cmax [2, 11]: 1630 ng/mL
Tmax [2, 11]: 4.98 min
AUC(0-t) [2, 12]: 1170 ng·h/mL
Cmax [2, 12]: 2560 ng/mL
Tmax [2, 12]: 4.98 min
AUC(0-t) [2, 13]: 4630 ng·h/mL
Cmax [2, 13]: 8400 ng/mL
Tmax [2, 13]: 4.98 min
AUC(0-t) [2, 14]: 3810 ng·h/mL
Cmax [2, 14]: 8440 ng/mL
Tmax [2, 14]: 4.98 min
Fospropofol AUC0-6hr following repeated administration ([2]; male and female rats): did not appear to change
AUC(0-t) [2, 15]: 97.1 ng·h/mL
Cmax [2, 15]: 178 ng/mL
Tmax [2, 15]: 4.98 min
AUC(0-t) [2, 16]: 96.9 ng·h/mL
Cmax [2, 16]: 149 ng/mL
Tmax [2, 16]: 4.98 min
AUC(0-t) [2, 17]: 386 ng·h/mL
Cmax [2, 17]: 930 ng/mL
Tmax [2, 17]: 4.98 min
AUC(0-t) [2, 18]: 370 ng·h/mL
Cmax [2, 18]: 1360 ng/mL
Tmax [2, 18]: 4.98 min
AUC(0-t) [2, 19]: 3720 ng·h/mL
Cmax [2, 19]: 8510 ng/mL
Tmax [2, 19]: 4.98 min
AUC(0-t) [2, 20]: 2130 ng·h/mL
Cmax [2, 20]: 5020 ng/mL
Tmax [2, 20]: 4.98 min
Dependence of systemic exposure on sex ([2]; rats, 14 days oral gavage fospropofol disodium): greater exposure in females
